The structures appear in SMILES notation. Like-named read-outs stand apart in the source and are kept apart here.

Experiment [1] has as its target wild-type human cardiac sodium channel, hNaV 1.5 (Peak INa) (Homo sapiens, UniProt Q14524). Description: Peak INa screening assay (tonic block and use-dependent block). The class given is cell-based. The method, boiled down: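 HEK293 cells stably expressing hNaV1.5 alpha subunit without beta subunits, whole-cell automated patch clamp. Compound at 1 or 3 μM added twice 60 s apart, then 200 s equilibration before tonic and use-dependent block voltage protocols. Block calculated versus compound-free condition with rundown correction; intracellular solution CsF/CsCl-based, pH 7.35.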

In experiment [2] the target is wild-type human cardiac sodium channel, hNaV 1.5 (Late INa) (Homo sapiens, UniProt Q14524). Description: Late INa screening assay (whole cell patch clamp, QPatch, Tefluthrin-induced late current). The class given is cell-based. Particulars: HEK293, % inhibition (percent block of late INa) at 1 uM; HEK293 hNaV1.5; 10 μM Tefluthrin; read-out: Nav1.5 Late INa 1 uM. The method, boiled down:
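HEK293 cells stably expressing hNaV1.5 without beta subunits, whole-cell patch clamp at 23-25° C; late current induced by 10 μM Tefluthrin, measured 240-265 ms into 250 ms steps to −20 mV from −120 mV at 0.1 Hz. Compounds typically 0.3 or 1 μM, three additions over 5 min; percent block normalized to 0Na baseline with rundown correction.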
On the technique in general: In patch-clamp work, channel activity is measured electrically.

Where [3] appears, read: % inhibition, use-dependent block of peak INa at 3 uM, 3 Hz, pulse 50, read-out: Nav1.5 Peak UDB 3 Hz 3 uM.
[4] abbreviates: read-out: Nav1.5 Peak TB 3 uM, % inhibition, tonic block of peak INa at 3 uM, 0.1 Hz, holding -100 mV.

Chain of wild-type human cardiac sodium channel, hNaV 1.5 (Peak INa) (Q14524 whole entry): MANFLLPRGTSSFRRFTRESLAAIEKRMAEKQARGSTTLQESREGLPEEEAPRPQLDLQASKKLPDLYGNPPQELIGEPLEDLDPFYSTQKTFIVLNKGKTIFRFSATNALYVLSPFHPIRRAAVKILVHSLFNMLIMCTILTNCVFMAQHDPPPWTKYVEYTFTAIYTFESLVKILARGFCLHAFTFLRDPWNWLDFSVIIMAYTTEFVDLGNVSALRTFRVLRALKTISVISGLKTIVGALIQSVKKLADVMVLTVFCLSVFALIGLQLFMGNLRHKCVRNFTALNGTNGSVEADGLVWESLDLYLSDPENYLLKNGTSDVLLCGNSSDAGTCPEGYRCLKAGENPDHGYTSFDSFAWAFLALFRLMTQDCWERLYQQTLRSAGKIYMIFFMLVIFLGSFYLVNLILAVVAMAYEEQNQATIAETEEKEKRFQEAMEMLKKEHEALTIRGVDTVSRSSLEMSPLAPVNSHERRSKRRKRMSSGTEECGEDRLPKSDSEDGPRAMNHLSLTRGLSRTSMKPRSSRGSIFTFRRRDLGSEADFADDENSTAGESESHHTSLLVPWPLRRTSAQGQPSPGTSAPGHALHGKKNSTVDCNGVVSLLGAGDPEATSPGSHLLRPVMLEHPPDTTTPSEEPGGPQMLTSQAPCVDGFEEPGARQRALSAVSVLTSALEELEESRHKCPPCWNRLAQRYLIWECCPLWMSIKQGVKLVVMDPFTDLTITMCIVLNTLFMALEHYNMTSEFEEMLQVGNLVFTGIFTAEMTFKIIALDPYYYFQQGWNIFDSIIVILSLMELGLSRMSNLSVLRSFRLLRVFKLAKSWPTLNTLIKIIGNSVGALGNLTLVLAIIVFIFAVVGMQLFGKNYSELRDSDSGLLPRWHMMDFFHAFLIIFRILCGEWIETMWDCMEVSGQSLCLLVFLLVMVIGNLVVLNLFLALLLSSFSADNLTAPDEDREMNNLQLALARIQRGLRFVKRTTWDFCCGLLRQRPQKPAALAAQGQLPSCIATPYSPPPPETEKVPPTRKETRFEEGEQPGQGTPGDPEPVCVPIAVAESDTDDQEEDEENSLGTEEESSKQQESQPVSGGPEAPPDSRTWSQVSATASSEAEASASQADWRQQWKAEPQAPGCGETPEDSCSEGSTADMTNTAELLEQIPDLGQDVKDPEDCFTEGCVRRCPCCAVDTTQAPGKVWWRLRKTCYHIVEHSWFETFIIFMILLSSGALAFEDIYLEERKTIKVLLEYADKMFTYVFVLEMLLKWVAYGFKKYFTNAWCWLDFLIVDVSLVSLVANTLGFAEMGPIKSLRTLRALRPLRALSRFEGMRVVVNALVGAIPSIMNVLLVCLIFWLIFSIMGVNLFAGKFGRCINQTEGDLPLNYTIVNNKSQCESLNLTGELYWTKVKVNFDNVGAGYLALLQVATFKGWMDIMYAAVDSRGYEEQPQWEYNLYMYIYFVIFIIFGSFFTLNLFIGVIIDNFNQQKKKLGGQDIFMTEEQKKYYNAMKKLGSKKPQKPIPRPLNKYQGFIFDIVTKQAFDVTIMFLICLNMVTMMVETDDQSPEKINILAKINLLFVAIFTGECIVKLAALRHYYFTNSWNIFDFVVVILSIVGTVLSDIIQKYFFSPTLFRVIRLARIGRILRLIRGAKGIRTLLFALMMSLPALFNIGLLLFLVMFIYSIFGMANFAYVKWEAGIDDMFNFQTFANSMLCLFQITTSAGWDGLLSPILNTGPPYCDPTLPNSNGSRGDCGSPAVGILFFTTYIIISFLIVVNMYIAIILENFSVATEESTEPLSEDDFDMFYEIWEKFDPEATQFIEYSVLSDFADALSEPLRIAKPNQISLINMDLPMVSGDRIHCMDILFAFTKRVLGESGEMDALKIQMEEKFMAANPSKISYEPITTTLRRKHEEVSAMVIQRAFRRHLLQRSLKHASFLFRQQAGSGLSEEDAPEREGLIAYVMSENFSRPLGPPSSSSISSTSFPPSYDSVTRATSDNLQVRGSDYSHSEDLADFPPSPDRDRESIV
Chain of wild-type human cardiac sodium channel, hNaV 1.5 (Late INa) (Q14524 whole entry): as above

On to `COc1cc(C(F)(F)F)ccc1-c1ccc2c(c1)CN(Cc1cccc(C)n1)C(=O)O2` [Example 44, 6-(2-methoxy-4-(trifluoromethyl)phenyl)-3-((6-methylpyridin-2-yl)methyl)-3,4-dihydro-2H-benzo[e][1,3]oxazin-2-one], for which the inhibition at 3 µM was < 5% in experiment [1] (setting [3]) and 21.6% in experiment [1] (setting [4]). Further, the inhibition at 1 µM in experiment [2] stood at 44.8%.

Consider `Cc1cccc(CN2Cc3cc(-c4ccc(C(F)(F)F)cc4F)ccc3OC2=O)n1` [Example 45, 6-(2-fluoro-4-(trifluoromethyl)phenyl)-3-((6-methylpyridin-2-yl)methyl)-3,4-dihydro-2H-benzo[e][1,3]oxazin-2-one], for which the inhibition at 3 µM in experiment [1] (setting [3]) is < 5%; in experiment [1] (setting [4]), 33.5%. The inhibition at 1 µM in experiment [2] is 53.6%.

Consider `COc1cc(OC(F)(F)F)ccc1-c1ccc2c(c1)CN(Cc1cccc(C)n1)C(=O)O2` [Example 46, 6-(2-methoxy-4-(trifluoromethoxy)phenyl)-3-((6-methylpyridin-2-yl)methyl)-3,4-dihydro-2H-benzo[e][1,3]oxazin-2-one], for which the figures for the inhibition at 3 µM in experiment [1] (setting [3]) and in experiment [1] (setting [4]) were < 5% and 34.7%, respectively. Moreover, the inhibition at 1 µM in experiment [2] was 51.3%.

With `Cc1cccc(CN2Cc3cc(-c4ccc(OC(F)(F)F)cc4F)ccc3OC2=O)n1` [Example 47, 6-(2-fluoro-4-(trifluoromethoxy)phenyl)-3-((6-methylpyridin-2-yl)methyl)-3,4-dihydro-2H-benzo[e][1,3]oxazin-2-one], the values for the inhibition at 3 µM in experiment [1] (setting [3]) and in experiment [1] (setting [4]) were < 5% and 44.3%, respectively. Moreover, in experiment [2], the inhibition at 1 µM came out at 52.8%.

Turning to `CC1c2cc(-c3ccc(OC(F)(F)F)cc3)ccc2OC(=O)N1Cc1ncccn1` (stereo not drawn) [Example 48, 4-methyl-3-(pyrimidin-2-ylmethyl)-6-(4-(trifluoromethoxy)phenyl)-3,4-dihydro-2H-benzo[e][1,3]oxazin-2-one], the inhibition at 3 µM in experiment [1] (setting [4]) is 12.1%. Besides, the inhibition at 1 µM in experiment [2] worked out at 53.2%.

For the compound `CC1c2cc(-c3cccc(OC(F)(F)F)c3)ccc2OC(=O)N1Cc1ncccn1` (stereo not drawn) [Example 50, 4-methyl-3-(pyrimidin-2-ylmethyl)-6-(3-(trifluoromethoxy)phenyl)-3,4-dihydro-2H-benzo[e][1,3]oxazin-2-one], the inhibition at 3 µM in experiment [1] (setting [3]) was 12.1%; in experiment [1] (setting [4]), 17.7%. The inhibition at 1 µM in experiment [2] was determined as 34.9%.

On to `Cc1csc(CN2Cc3cc(-c4ccc(OC(F)(F)F)cc4)ccc3OC2=O)n1` [Example 52, 3-((4-methylthiazol-2-yl)methyl)-6-(4-(trifluoromethoxy)phenyl)-3,4-dihydro-2H-benzo[e][1,3]oxazin-2-one], for which the values for the inhibition at 3 µM in experiment [1] (setting [3]) and in experiment [1] (setting [4]) were < 5% and 11.9%, respectively. For the same compound, the inhibition at 1 µM in experiment [2] came to 58%.

As to `Cc1csc(CN2Cc3cc(-c4ccc(OC(F)(F)F)c(F)c4)ccc3OC2=O)n1` [Example 53, 6-(3-fluoro-4-(trifluoromethoxy)phenyl)-3-((4-methylthiazol-2-yl)methyl)-3,4-dihydro-2H-benzo[e][1,3]oxazin-2-one], the inhibition at 3 µM in experiment [1] (setting [3]) was < 5%; in experiment [1] (setting [4]) it was 19.8%. Further, the inhibition at 1 µM in experiment [2] was found to be 60.3%.

With `Cc1csc(CN2Cc3cc(-c4ccc(OC(F)(F)F)c(C)c4)ccc3OC2=O)n1` [Example 54, 6-(3-methyl-4-(trifluoromethoxy)phenyl)-3-((4-methylthiazol-2-yl)methyl)-3,4-dihydro-2H-benzo[e][1,3]oxazin-2-one], the inhibition at 3 µM is < 5% in experiment [1] (setting [3]) and 11.2% in experiment [1] (setting [4]). For the same compound, in experiment [2], the inhibition at 1 µM was determined as 31%.

Regarding `Cc1csc(CN2Cc3cc(-c4ccc(OC(F)(F)F)cc4F)ccc3OC2=O)n1` [Example 55, 6-(2-fluoro-4-(trifluoromethoxy)phenyl)-3-((4-methylthiazol-2-yl)methyl)-3,4-dihydro-2H-benzo[e][1,3]oxazin-2-one], the inhibition at 3 µM in experiment [1] (setting [3]) was < 5%; in experiment [1] (setting [4]), 16.1%. In addition, the inhibition at 1 µM in experiment [2] came to 35.3%.

Regarding `Cc1csc(CN2Cc3cc(-c4ccc(Cl)c(Cl)c4)ccc3OC2=O)n1` [Example 56, 6-(3,4-dichlorophenyl)-3-((4-methylthiazol-2-yl)methyl)-3,4-dihydro-2H-benzo[e][1,3]oxazin-2-one], the inhibition at 3 µM in experiment [1] (setting [3]) is < 5%. Besides, the inhibition at 1 µM in experiment [2] was determined as 39%.

With `Cc1csc(CN2Cc3cc(-c4ccc(OC(F)(F)F)cc4Cl)ccc3OC2=O)n1` [Example 57, 6-(2-chloro-4-(trifluoromethoxy)phenyl)-3-((4-methylthiazol-2-yl)methyl)-3,4-dihydro-2H-benzo[e][1,3]oxazin-2-one], the inhibition at 3 µM in experiment [1] (setting [3]) is < 5%. In experiment [2], the inhibition at 1 µM is 34.1%.

Take `COc1cc(OC(F)(F)F)ccc1-c1ccc2c(c1)CN(Cc1nc(C)cs1)C(=O)O2` [Example 58, 6-(2-methoxy-4-(trifluoromethoxy)phenyl)-3-((4-methylthiazol-2-yl)methyl)-3,4-dihydro-2H-benzo[e][1,3]oxazin-2-one]: the inhibition at 3 µM in experiment [1] (setting [3]) was < 5%; in experiment [1] (setting [4]) it was 7.9%. Besides, in experiment [2], the inhibition at 1 µM was found to be 44.1%.

In the case of `Cc1csc(CN2Cc3cc(-c4ccc(Cl)c(F)c4)ccc3OC2=O)n1` [Example 59, 6-(4-chloro-3-fluorophenyl)-3-((4-methylthiazol-2-yl)methyl)-3,4-dihydro-2H-benzo[e][1,3]oxazin-2-one], the inhibition at 3 µM is < 5% in experiment [1] (setting [3]) and 13% in experiment [1] (setting [4]). The inhibition at 1 µM in experiment [2] amounted to 50.3%.
